# Results taken from patent publication US20240197733A1, “A GABA RECEPTOR MODULATOR FOR USE IN THE TREATMENT OF PAIN” (SANIONA A/S, priority 2021, published 2024).
# Assays:
# [1] = system: electrocutaneous stimulation-induced facial pain rodent model; experiment: ES-induced facial pain model, prophylactic treatment, overall conclusion (mechanical and thermal tests); type: in vivo, Sprague-Dawley rats; conditions: po
# Procedure: Unless stated otherwise, the same materials, methods, and provisions of Example 1 were applied to Example 2. The experimenter assessing the behavioral responses to drug administration is blinded to the drug treatment to the animals. Each treatment group is coded according the scheme below: • A. Vehicle (5% DMSO+30% HPBCD): 10 ml/kg • B. Compound 1: 0.3 mg/kg • C. Compound 1: 1 mg/kg • D. Compound 1: 3 mg/kg • F. Compound 1: 3 mg/kg—acute Second baseline measurement was carried out similarly to day 1, For each animal, the average of the two baseline nociceptive measurements was calculated within each pain modality (mechanical, heat- and cold pain), and used as baseline (“Baseline” point on figures). Then all rats in the above respective group (A-D) are given treated as mentioned. Group F received vehicle treatment. Treatment is continued once daily to each group same as Day 2 All rats were treated with respective treatment as per day 3-7. After 1 hr of treatment, each rat was subjected to 1 hr of electrocutaneous stimulation at depilated cheek (0.4 mA intensity, 10 ms duration, 1 s inter-pulse interval). […] Treatment effects on pain thresholds were evaluated 2- and 4 hours after administration by assessing mechanical- (Von Frey) and thermal (heat and cold) withdrawal threshold.
# [2] = system: electrocutaneous stimulation-induced facial pain rodent model; experiment: ES-induced facial pain model, hot thermal hyperalgesia (lamp test), prophylactic and acute treatment; type: in vivo, Sprague-Dawley rats; conditions: for development of heat hyperalgesia vs vehicle: day 9 at 0 time
# Procedure: Immediately following assessment of mechanical pain threshold, thermal (hot- and cold induced) pain was determined. Hot thermal pain thresholds were assessed by measuring each rat's facial withdrawal latency (seconds) in response to thermal stimulation on the depilated and stimulated rat cheek by using Yeomans' Thermal Testing Lamp with the following settings: Lamp fixed ˜7 cm above depilated left cheek of rat, Voltage regulator was set to 45V for C fiber testing. Cutoff was set at 20 seconds to avoid tissue damage. Unless stated otherwise, the same materials, methods, and provisions of Example 1 were applied to Example 2. The required quantity of the compound is weighed and dissolved in 100% DMSO in a volume amounting to 5% of the total volume while placed on a stirrer. The weight of the compounds refers to the free base weights. Once the solution becomes clear/transparent, the remaining volume of the vehicle is added (30% HPBCD prepared in MQ water) to final concentrations of 0.03, 0.1, and 0.3 mg/ml for Compound 1. The solutions are kept on a stirrer before- and during administration of the compounds to the animals. The experimenter assessing the behavioral responses to drug administration is blinded to the drug treatment to the animals. Each treatment group is coded according the scheme below: • A. Vehicle (5% DMSO+30% HPBCD): 10 ml/kg • B. Compound 1: 0.3 mg/kg • C. Compound 1: 1 mg/kg • D. Compound 1: 3 mg/kg • F. Compound 1: 3 mg/kg—acute Second baseline measurement was carried out similarly to day 1, For each animal, the average of the two baseline nociceptive measurements was calculated within each pain modality (mechanical, heat- and cold pain), and used as baseline (“Baseline” point on figures). Then all rats in the above respective group (A-D) are given treated as mentioned. Group F received vehicle treatment. Treatment is continued once daily to each group same as Day 2 All rats were treated with respective treatment as per day 3-7. After 1 hr of treatment, each rat was subjected to 1 hr of electrocutaneous stimulation at depilated cheek (0.4 mA intensity, 10 ms duration, 1 s inter-pulse interval). Similar to day 1- and 2, all rats were acclimatized to test equipment followed by measurements of ES-induced facial mechanical- heat- and cold allodynia (“0” time point on figures). After measurement of hypersensitivity threshold, rats from group A-D received the vehicle and three doses of Compound 1 as mentioned above while group F received single acute dose of 3 mg/kg of Compound 1. Treatment effects on pain thresholds were evaluated 2- and 4 hours after administration by assessing mechanical- (Von Frey) and thermal (heat and cold) withdrawal threshold.
smiles,measurement,setting,value
"COc1ncc(-c2cccc(-n3cnc4cc(C(C)(C)O)cnc43)c2)c(OC)n1 [Compound 1, 2-(3-(3-(2,4-dimethoxypyrimidin-5-yl)phenyl)-3H-imidazo[4,5-b]pyridin-6-yl)propan-2-ol]",analgesic effect compared with 10 mg/kg acute dose of Compound 1 or 30 mg/kg of Carbamazepine,"[1]; once daily dose of 3 mg/kg, prophylactic",same analgesic effect
same,development of ES-induced sensitization (hypersensitivity to mechanical and thermal stimulus),"[1]; prophylactic treatment for 7 days, once daily dose",significantly reduced the development of ES-induced sensitization of the trigeminal sensory system
same,effect on established heat hyperalgesia vs vehicle,"[2]; acute 3 mg/kg po on day 9, p<0.0001 post 2 and 4 hrs",reversed the heat hyperalgesia
same,effect on established heat hyperalgesia vs vehicle,"[2]; prophylactic 0.3 mg/kg po plus additional dose on day 9, p<0.05 post 2 hrs, p<0.001 post 4 hrs",further enhanced the analgesic effect
same,development of heat hyperalgesia vs vehicle,"[2]; prophylactic 1 mg/kg po once daily for 7 days, p<0.05 vs vehicle",significantly reduced the development of heat hyperalgesia
same,effect on established heat hyperalgesia vs vehicle,"[2]; prophylactic 1 mg/kg po plus additional dose on day 9, p<0.0001 post 2 hrs and post 4 hrs",further enhanced the analgesic effect
same,development of heat hyperalgesia vs vehicle,"[2]; prophylactic 3 mg/kg po once daily for 7 days, p<0.0001 vs vehicle",significantly reduced the development of heat hyperalgesia
same,effect on established heat hyperalgesia vs vehicle,"[2]; prophylactic 3 mg/kg po plus additional dose on day 9, p<0.0001 post 2 hrs and post 4 hrs",further enhanced the analgesic effect
